This passage reports IC50 results from patent US8163771B2, “11 β-HSD1 modulators” (Exelixis, Inc., priority 2008, dated 2012).

In general, IC50 refers to the midpoint of a concentration-inhibition curve.

T1 sequence (P28845 whole entry): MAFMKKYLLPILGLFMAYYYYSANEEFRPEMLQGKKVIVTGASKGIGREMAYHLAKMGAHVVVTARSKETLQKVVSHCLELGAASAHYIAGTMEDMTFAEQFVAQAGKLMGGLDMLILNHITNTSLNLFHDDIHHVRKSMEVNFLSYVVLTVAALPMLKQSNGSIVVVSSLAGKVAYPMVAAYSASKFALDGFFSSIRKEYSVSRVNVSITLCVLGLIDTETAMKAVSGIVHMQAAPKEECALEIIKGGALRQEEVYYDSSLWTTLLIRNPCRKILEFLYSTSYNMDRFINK

The test has as its target T1, recombinant human 11 β-HSD1 (Homo sapiens, UniProt P28845).
T1 construct: made in house; host or cells: E. coli
In words: 11 β-HSD1 SPA Assay (Scintillation Proximity Assay). Format: biochemical. A digest of the protocol:
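Scintillation proximity read-out of cortisol formed from 40 nM [3H]cortisone by purified recombinant human enzyme (30-100 nM, E. coli) with 1 mM NADPH, pH7.4, 2 hours at room temperature; beads with cortisol antibody and glycyrrhetinic acid stop the reaction, read next day. IC50 derived from inhibition normalised to background and maximal wells.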
Background: In a scintillation proximity assay essentially only radioactivity close to the scintillant gives light.
Take `CC(C)(Oc1ccc(F)cc1C(F)(F)F)C(=O)N[C@H]1C[C@H]2CC[C@@H](C1)N2c1ccc(S(C)(=O)=O)nc1` [Example 288, 2-{[4-fluoro-2-(trifluoromethyl)phenyl]oxy}-2-methyl-N-{8-[6-(methylsulfonyl)pyridin-3-yl]-8-azabicyclo[3.2.1]oct-3-endo-yl}propanamide]: the IC50 was < 2000 nM. The same measure for `CS(=O)(=O)c1cccc(C2(C(=O)N[C@H]3C[C@H]4CC[C@@H](C3)N4c3ccc(C(=O)NCC(F)(F)F)cn3)CC2)c1` [Example 289, 6-{3-endo-[({1-[3-(methylsulfonyl)phenyl]cyclo-propyl}carbonyl)amino]-8-azabicyclo[3.2.1]oct-8-yl}-N-(2,2,2-trifluoroethyl)pyridine-3-carboxamide]: < 2000 nM; for `CC(C)(Oc1ccc(F)c(Cl)c1Cl)C(=O)N[C@H]1C[C@H]2CC[C@@H](C1)N2c1ccc(NS(C)(=O)=O)cn1` [Example 290, 2-[(2,3-dichloro-4-fluorophenyl)oxy]-2-methyl-N-(8-{5-[(methylsulfonyl)amino]pyridin-2-yl}-8-azabicyclo[3.2.1]oct-3-endo-yl)propanamide]: < 200 nM. The same measure for `CC(C)(Oc1ccc(Cl)cc1Cl)C(=O)N[C@H]1C[C@H]2CC[C@@H](C1)N2Cc1cccc(C(N)=O)c1` [Example 291, 3-{[3-endo-({2-[(2,4-dichlorophenyl)oxy]-2-methylpropanoyl}amino)-8-azabicyclo[3.2.1]oct-8-yl]methyl}benzamide]: < 2000 nM. In the case of `CC(C)(Oc1ccc(F)cc1C(F)(F)F)C(=O)N[C@H]1C[C@H]2CC[C@@H](C1)N2c1ccc(-c2nnn[nH]2)nc1` [Example 292, 2-{[4-fluoro-2-(trifiuoromethyl)phenyl]oxy}-2-methyl-N-{8-[6-(1H-tetrazol-5-yl)pyridin-3-yl]-8-azabicyclo[3.2.1]oct-3-endo-yl}propanamide] it was < 200 nM. In the case of `CC(C)(Oc1ccc(Cl)cc1S(C)(=O)=O)C(=O)N[C@H]1C[C@H]2CC[C@@H](C1)N2c1ccc(S(N)(=O)=O)cn1` [Example 293, N-{8-[5-(aminosulfonyl)pyridin-2-yl]-8-azabicyclo[3.2.1]oct-3-endo-yl}-2-{[4-chloro-2-(methylsulfonyl)phenyl]oxy}-2-methylpropanamide], the IC50 is < 2000 nM.

In the case of `CC(C)(Oc1ccc(F)cc1F)C(=O)N[C@H]1C[C@H]2CC[C@@H](C1)N2c1ccc(S(N)(=O)=O)cn1` [Example 294, N-{8-[5-(aminosulfonyl)pyridin-2-yl]-8-azabicyclo[3.2.1]oct-3-endo-yl}-2-[(2,4-difluorophenyl)oxy]-2-methylpropanamide], the IC50 is < 200 nM. As for `CC(C)(Oc1ccc(Cl)cc1Cl)C(=O)N[C@H]1C[C@H]2CC[C@@H](C1)N2Cc1ccc(C(N)=O)cc1` [Example 295, 4-{[3-endo-({2-[(2,4-dichlorophenyl)oxy]-2-methylpropanoyl}amino)-8-azabicyclo[3.2.1]oct-8-yl]methyl}benzamide], the IC50 is < 2000 nM. Turning to `CC(C)(Oc1ccc(F)cc1S(C)(=O)=O)C(=O)N[C@H]1C[C@H]2CC[C@@H](C1)N2c1ccc(C(=O)NCC(F)(F)F)cn1` [Example 296, 6-{3-endo-[(2-{[4-fluoro-2-(methylsulfonyl)phenyl]oxy}-2-methylpropanoyl)amino]-8-azabicyclo[3.2.1]oct-8-yl}-N-(2,2,2-trifluoroethyl)pyridine-3-carboxamide], the IC50 is < 200 nM. As for `CC(C)(Oc1ccc(Cl)c2ccccc12)C(=O)N[C@H]1C[C@H]2CC[C@@H](C1)N2c1ccc(C(N)=O)cn1` [Example 297, 6-[3-endo-({2-[(4-chloronaphthalen-1-yl)oxy]-2-methylpropanoyl}amino)-8-azabicyclo[3.2.1]oct-8-yl]pyridine-3-carboxamide], the IC50 was < 200 nM. The same measure for `CC(C)(Oc1ccc(F)cc1S(C)(=O)=O)C(=O)N[C@H]1C[C@H]2CC[C@@H](C1)N2c1ccc(S(N)(=O)=O)cn1` [Example 298, N-{8-[5-(aminosulfonyl)pyridin-2-yl]-8-azabicyclo[3.2.1]oct-3-endo-yl}-2-{[4-fluoro-2-(methylsulfonyl)phenyl]oxy}-2-methylpropanamide]: < 2000 nM; for `CC(C)(Oc1ccc(Cl)cc1C(F)(F)F)C(=O)N[C@H]1C[C@H]2CC[C@@H](C1)N2c1ccc(S(C)(=O)=O)nc1` [Example 299, 2-{[4-chloro-2-(trifluoromethyl)phenyl]oxy}-2-methyl-N-{8-[6-(methylsulfonyl)pyridin-3-yl]-8-azabicyclo[3.2.1]oct-3-endo-yl}propanamide]: < 200 nM; for `CC(C)(Oc1ccccc1S(C)(=O)=O)C(=O)N[C@H]1C[C@H]2CC[C@@H](C1)N2c1ccc(C(=O)NCC(F)(F)F)cn1` [Example 300, 6-{3-endo-[(2-methyl-2-{[2-(methylsulfonyl)phenyl]oxy}-propanoyl)amino]-8-azabicyclo[3.2.1]oct-8-yl}-N-(2,2,2-trifluoroethyl)pyridine-3-carboxamide]: < 2000 nM. The same measure for `CC(C)(Oc1ccc(Cl)cc1Cl)C(=O)N1[C@@H]2CC[C@H]1C[C@@H](Nc1ccc(C(N)=O)cn1)C2` [Example 302, 6-[(8-{2-[(2,4-dichlorophenyl)oxy]-2-methylpropanoyl}-8-azabicyclo[3.2.1]oct-3-endo-yl)amino]pyridine-3-carboxamide]: < 200 nM; for `CC(C)(Oc1cc(Cl)c(C(C)(C)O)cc1Cl)C(=O)N[C@H]1C[C@H]2CC[C@@H](C1)N2c1ccc(C(=O)NCC(F)F)cn1` [Example 303, 6-[3-endo-({2-[2,5-dichloro-4-(2-hydroxypropan-2-yl)phenoxy]-2-methylpropanoyl}amino)-8-azabicyclo[3.2.1]oct-8-yl]-N-(2,2-difluoroethyl)pyridine-3-carboxamide]: < 200 nM; for `CC(C)(Oc1cc(F)c(C(C)(C)O)cc1Cl)C(=O)N[C@H]1C[C@H]2CC[C@@H](C1)N2c1ccc(C(=O)NCC(F)F)cn1` [Example 304, 6-[3-endo-({2-[2-chloro-5-fluoro-4-(2-hydroxypropan-2-yl)phenoxy]-2-methylpropanoyl}amino)-8-azabicyclo[3.2.1]oct-8-yl]-N-(2,2-difluoroethyl)pyridine-3-carboxamide]: < 200 nM. The same measure for `CC(C)(Oc1ccc(Cl)cc1C(F)(F)F)C(=O)N[C@H]1C[C@H]2CC[C@@H](C1)N2c1ccc(-c2nnn[nH]2)nc1` [Example 306, 2-{[4-chloro-2-(trifluoromethyl)phenyl]oxy}-2-methyl-N-{8-[6-(1H-tetrazol-5-yl)pyridin-3-yl]-8-azabicyclo[3.2.1]oct-3-endo-yl}propanamide]: < 200 nM. For the compound `CC(C)(Oc1ccc(Cl)cc1Cl)C(=O)N[C@H]1C[C@H]2CC[C@@H](C1)N2c1ccc(S(C)(=O)=O)nc1` [Example 307, 2-[(2,4-dichlorophenyl)oxy]-2-methyl-N-{8-[6-(methylsulfonyl)pyridin-3-yl]-8-azabicyclo[3.2.1]oct-3-endo-yl}propanamide], the IC50 was < 200 nM. In the case of `CC(C)(C(=O)N[C@H]1C[C@H]2CC[C@@H](C1)N2c1ccc(S(C)(=O)=O)cn1)S(=O)(=O)c1ccc(Cl)cc1Cl` [Example 308, 2-[(2,4-dichlorophenyl)sulfonyl]-2-methyl-N-{8-[5-(methylsulfonyl)pyridin-2-yl]-8-azabicyclo[3.2.1]oct-3-endo-yl}propanamide], the half-inhibitory concentration (IC50) was < 2000 nM.
